The subject of one series is U266 cells. In words: RT-PCR of candidate genes in XPP-treated U266 cells. In kind it is cell-based, human. As for the experimental part: RT-PCR analysis of genes related to Cell cycle, B cell differentiation, and IgE production was performed by QuantStudio 5 real-time PCR system (Thermo Fisher, Waltham, MA). For each PCR reaction, 12.5 μL maxima SYBR Green/ROX qPCR Master Mix 2x (Thermo Fisher, Waltham, MA) was mixed with 1.8 μL of 0.3 μM target primers and 300 ng of template DNA to make the total volume as 25 μL. The PCR procedure was set as […] 25°C for 5 min, 42°C for 60 min and 70°C for 15 min. GAPDH was used as the housekeeping gene. The Delta Ct values for each gene were calculated by normalizing the Ct values with the housekeeping gene. The relative fold change in mRNA expression between different groups was calculated and expressed as 2^−ΔΔCT. The primer sequence used are shown in Supplementary Table 1 .

A further series has as its system ARH-77 cells. The series can be described thus: Cell viability of ARH-77 cells by trypan blue exclusion. It is filed as cell-based, human. As to conditions: XPP 2.5-40 μg/mL. The method, then:
Cell viability was evaluated using the trypan blue exclusion assay. Briefly, 10µL of ARH-77 cells at each testing condition was mixed with 10 µL of trypan blue dye. The mixture was then loaded into a hemocytometer and the viable cells were counted under a microscope. The percentage of viable cells was calculated as follows: Viable cells (%) = (total number of viable cells) / (total number of cells) × 100.

For the next series, the system named is IgE+ B cells. The series can be described thus: Flow cytometry of IgE+ B cells in spleen and bone marrow of treated mice (Model #2). It is filed as in vivo, C3H/HeJ mice. As to conditions: model #2, vs sham. As for the experimental part: Single cell suspensions of spleen, bone marrow from two femurs and heparinized peripheral blood were isolated in AIM-V medium. Erythrocytes were lysed with red cell lysing buffer (Sigma-Aldrich, St. Louis, MO). For staining, cells were suspended in ice cold staining buffer (PBS including 0.5 mM EDTA, 0.05 mM Sodium Azide, 0.5% BSA). Surface staining was performed by incubating cells with unlabeled anti-IgE (to block membrane IgE), BV605 anti-B220, BV711-anti-CD3, anti-CD16/32 (Fc-block), all from BD Biosciences, CA). Live-dead discriminating dye (Live-Dead Aqua, Invitrogen, CA) was included. After incubation, cells were washed and suspended in fixation/permeabilization buffer for 15 mins. Cells were washed with permeabilization buffer and incubated with Fitc-anti IgE in permeabilization buffer for 30 mins in the dark on ice. After washing, cells were treated with Cytofix buffer for 15 mins for post-fixation and then washed 3 times with staining buffer and finally resuspended in 200 µL staining buffer for cell acquisition on LSRII flow cytometer (BD Bioscience, San Jose, CA). Flow cytometry analysis was performed using Flow Jo 5.4 software (Tree Star Inc., Ashland, Oregon) as follows. […] From live cell gate, all IgE+ (Fitc-IgE) cells were gated and subsequently analyzed for IgE+ B cells (Fitc-IgE +; BV605-B220+ cells).

As to `O=C1c2ccccc2C(=O)c2c(O)cc(O)cc21` [XPP, xanthopurpurin], in the series on U266 cells (XPP 20 μg/mL, p < 0.001), the CCND1 gene expression entry is “significantly reduced”, the IL6R gene expression entry was “significantly reduced” and the SCD1 gene expression entry is “significantly reduced”. In the series on U266 cells (XPP 20 μg/mL, p < 0.01), the DUSP4 gene expression result is “significantly increased” and the PTPRC gene expression result is “significantly increased”. Also, in the series on U266 cells (increasing XPP concentration), the ETS1 gene expression result is given as “upregulation trend with the increasing concentration of XPP, but no significant value was observed”. In addition, the “Toxicity / cell viability of ARH-77 cells” value in the series on ARH-77 cells was “No toxicity was observed”. Further, the “Percentage of IgE+ B cells (over all IgE+ cells) in bone marrow” value in the series on IgE+ B cells (p < 0.001) is “significantly reduced”. The “Percentage of IgE+ B cells (over all IgE+ cells) in spleen” value in the series on IgE+ B cells (p < 0.01) is “significantly reduced”.

(Values after paper PMC10876879, “Sustained silencing peanut allergy by xanthopurpurin is associated with suppression of peripheral and bone marrow IgE-producing B cell” (Frontiers in Immunology, 2024).)
